Measurements from patent US4505897A, “Cyclic pentapeptides displaying somatostatin antagonism and method of treatment of mammals therewith” (The Administrators of the Tulane Educational Fund, priority 1983, dated 1985).
Non-standard residues stand in square brackets, D forms with d. Residues, ends and D or L forms follow the SMILES beside them. *: point of attachment. Bn = c1ccc(C*)cc1

Experiments:
[1] = system: plasma GH levels; test: Peptide effects on NEMBUTAL-stimulated GH levels in anesthetized rats (sc bolus, jugular blood, RIA); type: in vivo, rat
Protocol: (§1) In this evaluation, the procedures described by W. A. Murphy et al., Endocrinology, 109:491-495 (1980), were employed.
In growth hormone (GH) experiments, male rats (Charles Rivers) were anesthetized with NEMBUTAL® (5 mg per 100 g/BW) which also served to maintain stimulated plasma GH levels. Exactly 30 minutes after the rats were anesthetized, 0.5 ml of saline or the test peptide in saline was administered as a sc bolus. A 1 ml blood sample was drawn from the jugular vein 15 minutes after the injection. For examining blocking effects of the analog on somatostatin, the cyclic peptide was given five minutes prior to somatostatin. GH levels were determined using NIADDKD rat GH RIA components.

[2] = system: somatostatin; test: Somatostatin antagonist activity (blocking of exogenous somatostatin effects); type: in vivo, rats; settings: result in words
[3] = system: insulin release; test: Basal hepatic portal insulin levels in fasted rats; type: in vivo, rat; settings: after treatment, result in words
From the text: as §1

[4] = system: glucagon release; test: Basal hepatic portal glucagon levels in fasted rats; type: in vivo, rat; settings: after treatment, result in words
From the text: as §1

| Compound | GH (ng/ml) ([1]; first experiment, dose 2 μg/100 g body weight sc, saline 389 ± 60) | GH ([1]; first experiment, dose 10 μg/100 g body weight sc, saline 389 ± 60) | GH ([1]; second experiment, dose 0.3 μg/100 g body weight sc, saline 648 ± 177) | GH ([1]; second experiment, dose 0.3 μg/100 g body weight sc, saline 648 ± 177, listed as cyclo(Pro-Phe-D-Trp-Lys-Thr)) | GH ([1]; second experiment, dose 0.6 μg/100 g body weight sc, saline 648 ± 177) | GH ([1]; second experiment, dose 1.2 μg/100 g body weight sc, saline 648 ± 177) | somatostatin antagonist activity [2] | plasma growth hormone levels ([1]; NEMBUTAL-anesthetized and stimulated rats, after injection, result in words) | GH ([1]; third experiment, dose 0.2 μg/100 g body weight sc, saline 497 ± 80) | GH ([1]; third experiment, dose 0.2 μg/100 g body weight sc, saline 497 ± 80, listed as cyclo[Pro-Phe-D-Trp-Lys-Thr(Bzl)]) | GH ([1]; third experiment, dose 0.6 μg/100 g body weight sc, saline 497 ± 80) | basal hepatic portal insulin levels [3] | basal hepatic portal glucagon levels [4] | GH ([1]; first experiment, dose 0.4 μg/100 g body weight sc, blood 15 min after injection, saline 389 ± 60) | GH ([1]; third experiment, dose 0.5 μg/100 g body weight sc, saline 497 ± 80) |
| --- | --- | --- | --- | --- | --- | --- | --- | --- | --- | --- | --- | --- | --- | --- | --- |
| C[C@@H](O)[C@@H]1NC(=O)[C@H](CCCCN)NC(=O)[C@@H](Cc2c[nH]c3ccccc23)NC(=O)[C@H](Cc2ccccc2)NC(=O)[C@@H]2CCCN2C1=O [Cyclo(Pro--Phe--D-Trp--Lys--Thr), cyclo(L-prolyl-L-phenylalanyl-D-tryptophyl-L-lysyl-L-threonyl)] (cyclo(F[dW]KTP)) | 730 + 110 ng/ml | 459 ± 100 ng/mL | 1265 ± 318 ng/mL | 1265 ± 318 ng/mL | 1072 ± 187 ng/mL | 728 ± 143 ng/mL | has somatostatin antagonist activity |  |  |  |  |  |  |  |  |
| C[C@@H](OCc1ccccc1)[C@@H]1NC(=O)[C@H](CCCCN)NC(=O)[C@@H](Cc2c[nH]c3ccccc23)NC(=O)[C@H](Cc2ccccc2)NC(=O)[C@@H]2CCCN2C1=O [Cyclo[Pro--Phe--D-Trp--Lys--Thr(Bzl)], cyclo(L-prolyl-L-phenylalanyl-D-tryptophyl-L-lysyl-O-benzyl-L-threonyl)] (cyclo(F[dW]KT(Bn)P)) |  |  |  |  |  |  | very effective somatostatin antagonist | increased | 1724 ± 393 ng/mL | 1724 ± 383 ng/mL | 812 ± 163 ng/mL | significantly increased | significantly increased |  |  |
| C[C@H](N)C(=O)NCC(=O)N[C@H]1CSSC[C@@H](C(=O)O)NC(=O)[C@H](CO)NC(=O)[C@H]([C@@H](C)O)NC(=O)[C@H](Cc2ccccc2)NC(=O)[C@H]([C@@H](C)O)NC(=O)[C@H](CCCCN)NC(=O)[C@H](Cc2c[nH]c3ccccc23)NC(=O)[C@H](Cc2ccccc2)NC(=O)[C@H](Cc2ccccc2)NC(=O)[C@H](CC(N)=O)NC(=O)[C@H](CCCCN)NC1=O [Somatostatin, somatostatin] |  |  |  |  |  |  |  |  |  |  |  |  |  | 152 ± 51 ng/mL | 173 ± 46 ng/mL |
